Assays:
[1] = molecular target: T1, SaSiaT (sodium sialic acid symporter) (Staphylococcus aureus, UniProt A0A0H2XJ46); assay: isothermal titration calorimetry (n = […]); microscale thermophoresis gives Kd =[…]; proteoliposome transport KM […]; type: binding
T1 construct: gene SAUSA300_0314; recombinant SaSiaT, GFP-tag cleaved with HRV3C protease, purified in DDM

[2] = molecular target: T1, SaSiaT (sodium sialic acid symporter); assay: isothermal titration calorimetry (n = […]); microscale thermophoresis gives Kd =[…]; type: binding

T1 sequence (A0A0H2XJ46 entry or part of it): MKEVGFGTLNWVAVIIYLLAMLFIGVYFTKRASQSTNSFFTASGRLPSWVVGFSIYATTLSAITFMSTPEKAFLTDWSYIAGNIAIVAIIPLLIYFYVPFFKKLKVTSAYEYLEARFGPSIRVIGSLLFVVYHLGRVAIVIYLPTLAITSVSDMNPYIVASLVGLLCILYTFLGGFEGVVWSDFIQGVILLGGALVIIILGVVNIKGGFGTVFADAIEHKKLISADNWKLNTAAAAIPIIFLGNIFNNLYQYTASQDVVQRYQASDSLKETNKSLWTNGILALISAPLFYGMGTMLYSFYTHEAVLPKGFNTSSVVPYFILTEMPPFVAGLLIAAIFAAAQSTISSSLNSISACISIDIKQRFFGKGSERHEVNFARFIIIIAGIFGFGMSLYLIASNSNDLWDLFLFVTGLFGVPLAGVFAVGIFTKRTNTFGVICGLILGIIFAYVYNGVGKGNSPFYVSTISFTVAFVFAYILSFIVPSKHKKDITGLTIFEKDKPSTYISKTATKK

Row | SMILES | Kd [1] | Kd [2]
1 | CC(=O)N[C@H]1[C@H]([C@H](O)[C@H](O)CO)OC(O)(C(=O)O)C[C@@H]1O (some centres unmarked) [Neu5Ac, N-acetylneuraminic acid] | 106 ± 2 µM | –
2 | O=C(CO)N[C@H]1[C@H]([C@H](O)[C@H](O)CO)O[C@@](O)(C(=O)O)C[C@@H]1O [Neu5Gc, N-glycolylneuraminic acid] | – | 18 ± 2 µM
